Laboratory results: patent US11464759B2, “5-HT6 receptor antagonists for use in the treatment of alzheimer's disease in patient subpopulation carrying APOE4 alleles” (H. Lundbeck A/S, priority 2017, dated 2022)
“Also recorded” adds a separate entry of the source.

Legend:
[1] = tested on: AD; conditions: cited from earlier work
[2] = tested on: patients with mild-moderate AD; experiment: Phase III study 14863A, NPI by ApoE4 allele number; conditions: 60 mg QD versus placebo, adjunct to donepezil, rivastigmine, galantamine
[3] = tested on: patients with mild-moderate AD; experiment: Phase III studies 14861A and 14863A pooled, MMSE by ApoE4 allele number; conditions: 60 mg versus placebo, adjunct to AChEI
[4] = tested on: patients with mild-moderate AD; experiment: Phase III study 14861A, NPI by ApoE4 allele number; conditions: 60 mg QD versus placebo, adjunct to donepezil
[5] = biological target: h5-HT1E (Homo sapiens, UniProt P28566); conditions: cited from earlier work
[6] = tested on: patients with mild-moderate AD; experiment: Phase III study 14863A, ADAS-cog by ApoE4 allele number; conditions: 60 mg QD versus placebo, adjunct to donepezil, rivastigmine, galantamine
[7] = tested on: patients with mild-moderate Alzheimer's disease (MMSE 12-22); experiment: Phase III program, idalopirdine as adjunctive treatment to acetylcholinesterase inhibitor, cognitive performance; format: in vivo, human
[8] = tested on: patients with mild-moderate AD; experiment: Phase III study 14861A, MMSE by ApoE4 allele number; conditions: 60 mg QD versus placebo, adjunct to donepezil
[9] = biological target: h5-HT2B (Homo sapiens, UniProt P41595); conditions: cited from earlier work
[10] = biological target: h5-HT1B (Homo sapiens, UniProt P28222); conditions: cited from earlier work
[11] = tested on: patients with mild-moderate AD; experiment: Phase III studies 14861A and 14863A pooled, NPI by ApoE4 allele number; conditions: 60 mg versus placebo, adjunct to AChEI
[12] = tested on: patients with mild-moderate AD; experiment: Phase III study 14863A, MMSE by ApoE4 allele number; conditions: 60 mg QD versus placebo, adjunct to donepezil, rivastigmine, galantamine
[13] = biological target: h5-HT7 (Homo sapiens, UniProt P34969); conditions: cited from earlier work
[14] = tested on: patients with mild-moderate AD; experiment: Phase III study 14861A, ADAS-cog by ApoE4 allele number; conditions: 60 mg QD versus placebo, adjunct to donepezil
[15] = tested on: patients with moderate AD (MMSE 12-19); conditions: LADDER study, 90 mg/day (30 mg TID) added to stable donepezil; cited from earlier work
[16] = tested on: patients with mild-moderate AD; experiment: Phase III studies 14861A and 14863A pooled, ADCS-ADL by ApoE4 allele number; conditions: 60 mg versus placebo, adjunct to AChEI
[17] = tested on: patients with mild-moderate AD; experiment: Phase III study 14861A, ADCS-ADL by ApoE4 allele number; conditions: 60 mg QD versus placebo, adjunct to donepezil
[18] = tested on: patients with mild-moderate AD; experiment: Phase III studies 14861A and 14863A pooled, ADAS-cog by ApoE4 allele number; conditions: 60 mg versus placebo, adjunct to AChEI
[19] = tested on: patients with mild-moderate AD; experiment: Phase III study 14863A, ADCS-ADL by ApoE4 allele number; conditions: 60 mg QD versus placebo, adjunct to donepezil, rivastigmine, galantamine
[20] = tested on: APOE4/4 homozygote patients and APOE4 heterozygote patients with mild-moderate Alzheimer's disease; experiment: Expected treatment response to other 5-HT6 receptor antagonists in APOE4 patients; format: in vivo, human; conditions: APOE4/4 homozygote and APOE4 heterozygote patients with mild-moderate AD; surmised from idalopirdine
[21] = 0 ApoE4 alleles, negative = positive treatment effect
[22] = 1 ApoE4 allele, negative = positive treatment effect
[23] = 2 ApoE4 alleles, negative = positive treatment effect
[24] = interaction 2 vs 0 ApoE4 alleles
[25] = interaction (1 or 2) vs 0 ApoE4 alleles
[26] = 0 ApoE4 alleles, positive = positive treatment effect
[27] = 1 ApoE4 allele, positive = positive treatment effect
[28] = 2 ApoE4 alleles, positive = positive treatment effect

h5-HT1B, sequence (P28222 whole entry): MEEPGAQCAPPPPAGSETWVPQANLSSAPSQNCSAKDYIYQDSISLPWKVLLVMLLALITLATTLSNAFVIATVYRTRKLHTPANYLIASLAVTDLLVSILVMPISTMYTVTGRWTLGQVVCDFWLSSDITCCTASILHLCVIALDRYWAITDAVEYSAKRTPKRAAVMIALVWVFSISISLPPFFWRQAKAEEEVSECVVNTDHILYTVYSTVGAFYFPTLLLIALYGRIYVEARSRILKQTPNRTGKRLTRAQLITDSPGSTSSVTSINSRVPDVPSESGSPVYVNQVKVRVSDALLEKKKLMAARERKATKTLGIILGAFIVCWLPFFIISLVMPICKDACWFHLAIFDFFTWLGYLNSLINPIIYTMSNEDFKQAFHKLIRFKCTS
h5-HT7, sequence (P34969 whole entry): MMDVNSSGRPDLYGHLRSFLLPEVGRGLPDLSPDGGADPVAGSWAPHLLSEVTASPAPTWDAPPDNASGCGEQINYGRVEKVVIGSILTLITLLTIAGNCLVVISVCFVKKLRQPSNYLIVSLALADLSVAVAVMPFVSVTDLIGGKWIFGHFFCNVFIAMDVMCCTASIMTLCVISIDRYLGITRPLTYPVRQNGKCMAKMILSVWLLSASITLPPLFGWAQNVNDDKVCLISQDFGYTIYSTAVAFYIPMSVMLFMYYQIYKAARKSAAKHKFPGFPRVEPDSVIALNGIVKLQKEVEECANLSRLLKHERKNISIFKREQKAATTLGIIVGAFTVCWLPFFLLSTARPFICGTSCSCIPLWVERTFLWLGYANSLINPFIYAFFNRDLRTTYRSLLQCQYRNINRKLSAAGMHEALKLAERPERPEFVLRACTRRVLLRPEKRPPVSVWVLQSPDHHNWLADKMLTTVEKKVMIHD
h5-HT1E, sequence (P28566 whole entry): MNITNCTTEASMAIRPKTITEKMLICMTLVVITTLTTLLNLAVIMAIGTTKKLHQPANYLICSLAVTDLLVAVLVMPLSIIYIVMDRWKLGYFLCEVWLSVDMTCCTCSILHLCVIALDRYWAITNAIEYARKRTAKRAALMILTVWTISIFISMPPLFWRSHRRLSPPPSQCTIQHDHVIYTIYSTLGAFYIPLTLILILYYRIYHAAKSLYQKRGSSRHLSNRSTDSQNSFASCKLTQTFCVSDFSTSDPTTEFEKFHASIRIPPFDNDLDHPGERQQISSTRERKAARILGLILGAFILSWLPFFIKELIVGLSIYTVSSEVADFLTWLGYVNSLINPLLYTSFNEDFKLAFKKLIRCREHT
h5-HT2B, sequence (P41595 whole entry): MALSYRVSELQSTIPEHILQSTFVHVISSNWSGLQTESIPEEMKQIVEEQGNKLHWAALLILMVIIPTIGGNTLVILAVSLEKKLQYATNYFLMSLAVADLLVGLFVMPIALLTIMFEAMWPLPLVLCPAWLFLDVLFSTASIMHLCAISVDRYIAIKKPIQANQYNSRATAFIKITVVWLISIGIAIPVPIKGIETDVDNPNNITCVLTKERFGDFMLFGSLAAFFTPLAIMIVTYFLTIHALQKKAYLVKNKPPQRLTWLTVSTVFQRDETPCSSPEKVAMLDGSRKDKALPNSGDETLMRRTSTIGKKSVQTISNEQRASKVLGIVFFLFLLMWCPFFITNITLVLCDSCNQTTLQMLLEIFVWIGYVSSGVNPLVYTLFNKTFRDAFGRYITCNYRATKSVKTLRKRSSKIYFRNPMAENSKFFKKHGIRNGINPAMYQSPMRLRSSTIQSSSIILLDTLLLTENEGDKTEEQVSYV

In the case of `NCCCS(=O)(=O)O` [tramiprosate], the “primary endpoint of phase III program” value ([1]; all patients) is listed as “not to meet its primary endpoint” and the prespecified subgroup analysis ([1]; apolipoprotein E4 carriers) is listed as “potential efficacy”.
In the case of `Fc1ccc2c(CCNCc3cccc(OCC(F)(F)C(F)F)c3)c[nH]c2c1` [idalopirdine, N-(2-(6-fluoro-1H-indol-3-yl)-ethyl)-3-(2,2,3,3-tetrafluoropropoxy)-benzylamine], the “Change in NPI at week 24, effect of 60 mg IDL” value (“Change in NPI” for short) [2, 21] is reported as −0.09, the “Change in NPI” value [2, 22] is reported as 0.34 and the “Change in NPI” value [2, 23] is reported as −2.06. For the same compound, the “Change in NPI” value [2, 24] was −1.97, the “Change in NPI” value [2, 25] was −0.77 and the “Change in MMSE at week 24, effect of 60 mg IDL” value (from here on “Change in MMSE”) [3, 26] was −0.20. The “Change in MMSE” value [3, 27] was 0.53, the “Change in MMSE” value [3, 28] was 1.00 and the “Change in MMSE” value [3, 24] was 1.20. The “Change in MMSE” value [3, 25] was 0.96, the “Change in NPI” value [4, 21] was 0.96 and the “Change in NPI” value [4, 22] was −0.43. For the same compound, the “Change in NPI” value [4, 23] was −4.52, the “Change in NPI” value [4, 24] was −5.48 and the “Change in NPI” value [4, 25] was −3.44. For the same compound, the Ki [5] was > 4.6 µM, the “Change in ADAS-cog at week 24, effect of 60 mg IDL” value (shortened to “Change in ADAS-cog”) [6, 21] was −0.75 and the “Change in ADAS-cog” value [6, 22] was −0.18. For the same compound, the “Change in ADAS-cog” value [6, 23] was −2.23, the “Change in ADAS-cog” value [6, 24] was −1.48 and the “Change in ADAS-cog” value [6, 25] was −0.46. For the same compound, the “cognitive performance relative to donepezil monotherapy” value ([7]; adjunctive to donepezil, APOE4 homozygote and APOE4 heterozygote patients with mild-moderate AD (MMSE 12-22)) was “a significant improvement”, the “cognitive performance relative to donepezil monotherapy” value ([7]; phase III, 10, 30, and 60 mg QD adjunctive to AChEI, all patients with mild-moderate AD (MMSE 12-22)) was “did not replicate the phase II efficacy results; also recorded: no significant improvement” and the “Change in MMSE” value [8, 26] was −0.68. For the same compound, the “Change in MMSE” value [8, 27] was 0.64, the “Change in MMSE” value [8, 28] was 1.11 and the “Change in MMSE” value [8, 24] was 1.79. For the same compound, the “Change in MMSE” value [8, 25] was 1.56, the Ki [9] was > 4.1 µM and the Ki [10] was > 10 µM. For the same compound, the “Change in NPI” value [11, 21] was 0.35, the “Change in NPI” value [11, 22] was −0.04 and the “Change in NPI” value [11, 23] was −3.06. The “Change in NPI” value [11, 24] was −3.41, the “Change in NPI” value [11, 25] was −1.90 and the “Change in MMSE” value [12, 26] was 0.16. For the same compound, the “Change in MMSE” value [12, 27] was 0.42, the “Change in MMSE” value [12, 28] was 0.96 and the “Change in MMSE” value [12, 24] was 0.80. The “Change in MMSE” value [12, 25] was 0.53, the Ki [13] was > 10 µM and the “Change in ADAS-cog” value [14, 21] was 1.14. The “Change in ADAS-cog” value [14, 22] was −0.67, the “Change in ADAS-cog” value [14, 23] was −1.87 and the “Change in ADAS-cog” value [14, 24] was −3.02. The “Change in ADAS-cog” value [14, 25] was −2.42, the “cognitive performance relative to donepezil monotherapy” value [15] was “significant improvement” and the “Change in ADCS-ADL at week 24, effect of 60 mg IDL” value (“Change in ADCS-ADL” below) [16, 26] was −0.21. For the same compound, the “Change in ADCS-ADL” value [16, 27] was 0.77, the “Change in ADCS-ADL” value [16, 28] was 1.88 and the “Change in ADCS-ADL” value [16, 24] was 2.09. The “Change in ADCS-ADL” value [16, 25] was 1.53, the “Change in ADCS-ADL” value [17, 26] was −1.29 and the “Change in ADCS-ADL” value [17, 27] was 0.75. For the same compound, the “Change in ADCS-ADL” value [17, 28] was 2.06, the “Change in ADCS-ADL” value [17, 24] was 3.35 and the “Change in ADCS-ADL” value [17, 25] was 2.69. For the same compound, the “Change in ADAS-cog” value [18, 21] was 0.02, the “Change in ADAS-cog” value [18, 22] was −0.41 and the “Change in ADAS-cog” value [18, 23] was −2.11. For the same compound, the “Change in ADAS-cog” value [18, 24] was −2.13, the “Change in ADAS-cog” value [18, 25] was −1.28 and the “Change in ADCS-ADL” value [19, 26] was 0.50. The “Change in ADCS-ADL” value [19, 27] was 0.83, the “Change in ADCS-ADL” value [19, 28] was 1.86 and the “Change in ADCS-ADL” value [19, 24] was 1.37. For the same compound, the “Change in ADCS-ADL” value [19, 25] was 0.85.
In the case of `CSc1nn2c(C)cc(C)nc2c1S(=O)(=O)c1ccccc1` [AVN-211, 3-Benzenesulfonyl-5,7-dimethyl-2-methylsulfanyl-pyrazolo[1,5-a]pyrimidine], the “treatment response in Alzheimer's disease” value [20] is reported as “enhanced treatment response”.
In the case of `O=S(=O)(c1ccccc1)c1cnc2c(N3CCNCC3)cccc2c1` [RVT-101, 3-phenylsulfonyl-8-piperazin-1-yl-quinoline], the “treatment response in Alzheimer's disease” value [20] is reported as “enhanced treatment response”.
